# Assay results from ChEMBL document CHEMBL4428125, “8-Substituted 1,3-dimethyltetrahydropyrazino[2,1-f]purinediones: Water-soluble adenosine receptor antagonists and monoamine oxidase B inhibitors” (Bioorg Med Chem, 2016).
# Tests used:
# Adenosine receptor A2a = Adenosine receptor A2a (Rattus norvegicus, UniProt P30543); assay: Displacement of [3H]MSX from A2A receptor in rat brain striatum membranes measured after 30 mins by liquid scintillation counting method; type: cell membranes
# Adenosine receptor A2b = target: T1, Adenosine receptor A2b (Homo sapiens, UniProt P29275); assay: Displacement of [3H]PSB-603 from human A2B receptor expressed in CHO cell membrane; type: cell membranes
# T1 sequence (P29275 whole entry): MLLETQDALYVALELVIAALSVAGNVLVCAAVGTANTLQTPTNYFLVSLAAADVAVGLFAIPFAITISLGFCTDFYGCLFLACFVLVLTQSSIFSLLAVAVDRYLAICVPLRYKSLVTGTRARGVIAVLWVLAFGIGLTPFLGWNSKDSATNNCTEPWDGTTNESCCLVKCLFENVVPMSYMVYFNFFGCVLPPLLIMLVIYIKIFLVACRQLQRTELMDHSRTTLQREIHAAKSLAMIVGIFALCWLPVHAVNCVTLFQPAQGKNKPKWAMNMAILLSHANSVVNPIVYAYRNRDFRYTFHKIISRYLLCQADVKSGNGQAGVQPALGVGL
# Adenosine receptor A3 = target: T2, Adenosine receptor A3 (Homo sapiens, UniProt P0DMS8); assay: Displacement of [3H]PSB-11 from human A3 receptor expressed in CHO cell membrane by liquid scintillation counting method relative to control; type: cell membranes
# T2 sequence (P0DMS8 whole entry): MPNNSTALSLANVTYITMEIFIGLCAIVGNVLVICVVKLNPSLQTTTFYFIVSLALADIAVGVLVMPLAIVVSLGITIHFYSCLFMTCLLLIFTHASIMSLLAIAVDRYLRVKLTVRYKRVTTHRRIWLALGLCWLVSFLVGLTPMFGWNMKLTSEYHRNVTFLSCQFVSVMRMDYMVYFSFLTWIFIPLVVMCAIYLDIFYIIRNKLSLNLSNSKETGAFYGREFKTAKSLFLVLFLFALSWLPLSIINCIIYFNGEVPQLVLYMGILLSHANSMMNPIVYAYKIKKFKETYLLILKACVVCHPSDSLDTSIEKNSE
# [1] = target: T3, Adenosine receptor A3 (Homo sapiens) (UniProt P0DMS8); assay: Displacement of [3H]PSB-11 from human A3 receptor expressed in CHO cell membrane at 10 uM by liquid scintillation counting method relative to control relative to control; type: cell membranes
# T3 sequence (whole entry): T2 sequence (P0DMS8 whole entry)
# Adenosine receptor A1 [2] = target: T4, Adenosine receptor A1 (Homo sapiens, UniProt P30542); assay: Displacement of [3H]CCPA from human A1 receptor expressed in CHO cell membrane by liquid scintillation counting method; type: cell membranes
# T4 sequence (P30542 whole entry): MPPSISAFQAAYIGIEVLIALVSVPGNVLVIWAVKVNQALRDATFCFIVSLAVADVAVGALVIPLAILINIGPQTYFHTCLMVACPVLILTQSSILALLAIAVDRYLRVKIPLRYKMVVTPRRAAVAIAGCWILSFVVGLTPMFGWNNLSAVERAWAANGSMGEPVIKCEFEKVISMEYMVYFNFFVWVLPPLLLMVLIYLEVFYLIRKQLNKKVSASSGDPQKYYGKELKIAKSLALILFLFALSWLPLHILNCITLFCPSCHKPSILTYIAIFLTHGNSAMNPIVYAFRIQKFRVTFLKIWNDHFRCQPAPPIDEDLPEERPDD
# [3] = target: T5, Amine oxidase [flavin-containing] B (Homo sapiens, UniProt P27338); assay: Inhibition of recombinant human MAO-B expressed in baculovirus infected BTI insect cells preincubated for 30 mins followed by addition of p-tyramine as substrate measured over 45 mins by Amplex Red MAO assay
# T5 sequence (P27338 whole entry): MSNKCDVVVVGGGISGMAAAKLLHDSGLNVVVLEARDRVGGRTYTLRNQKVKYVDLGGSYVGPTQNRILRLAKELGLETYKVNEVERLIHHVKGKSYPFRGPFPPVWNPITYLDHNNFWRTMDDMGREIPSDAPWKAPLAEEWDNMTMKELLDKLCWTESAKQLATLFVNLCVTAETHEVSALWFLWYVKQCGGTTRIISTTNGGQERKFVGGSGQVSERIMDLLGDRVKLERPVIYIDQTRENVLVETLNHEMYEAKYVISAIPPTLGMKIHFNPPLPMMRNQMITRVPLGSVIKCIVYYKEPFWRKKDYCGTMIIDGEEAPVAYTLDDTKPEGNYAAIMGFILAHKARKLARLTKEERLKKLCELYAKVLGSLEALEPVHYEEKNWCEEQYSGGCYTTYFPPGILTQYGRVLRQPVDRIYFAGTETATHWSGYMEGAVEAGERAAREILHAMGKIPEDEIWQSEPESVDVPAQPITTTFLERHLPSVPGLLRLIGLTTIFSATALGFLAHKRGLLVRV
# Adenosine receptor A1 [4] = target: T6, Adenosine receptor A1 (Rattus norvegicus, UniProt P25099); assay: Displacement of [3H]CCPA from A1 receptor in rat brain cortex membranes by liquid scintillation counting method; type: cell membranes
# T6 sequence (P25099 whole entry): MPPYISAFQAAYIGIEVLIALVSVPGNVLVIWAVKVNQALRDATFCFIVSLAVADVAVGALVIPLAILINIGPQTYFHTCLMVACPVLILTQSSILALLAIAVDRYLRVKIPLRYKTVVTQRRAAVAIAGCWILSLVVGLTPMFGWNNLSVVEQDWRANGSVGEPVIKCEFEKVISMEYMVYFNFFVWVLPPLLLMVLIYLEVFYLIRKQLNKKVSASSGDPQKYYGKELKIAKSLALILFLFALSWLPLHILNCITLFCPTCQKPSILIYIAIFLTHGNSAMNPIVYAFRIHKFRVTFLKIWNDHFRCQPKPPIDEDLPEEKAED
# [5] = target: T7, Adenosine receptor A2b (Homo sapiens) (UniProt P29275); assay: Displacement of [3H]PSB-603 from human A2B receptor expressed in CHO cell membrane at 1 uM relative to control; type: cell membranes
# T7 sequence (whole entry): T1 sequence (P29275 whole entry)
# [6] = target: T7, Adenosine receptor A2b (Homo sapiens); assay: Displacement of [3H]PSB-603 from human A2B receptor expressed in CHO cell membrane at 0.3 uM relative to control; type: cell membranes
# [7] = target: T8, Amine oxidase [flavin-containing] A (Homo sapiens, UniProt P21397); assay: Inhibition of recombinant human MAO-A expressed in baculovirus infected BTI insect cells preincubated for 30 mins followed by addition of p-tyramine as substrate measured over 45 mins by Amplex Red MAO assay
# T8 sequence (P21397 whole entry): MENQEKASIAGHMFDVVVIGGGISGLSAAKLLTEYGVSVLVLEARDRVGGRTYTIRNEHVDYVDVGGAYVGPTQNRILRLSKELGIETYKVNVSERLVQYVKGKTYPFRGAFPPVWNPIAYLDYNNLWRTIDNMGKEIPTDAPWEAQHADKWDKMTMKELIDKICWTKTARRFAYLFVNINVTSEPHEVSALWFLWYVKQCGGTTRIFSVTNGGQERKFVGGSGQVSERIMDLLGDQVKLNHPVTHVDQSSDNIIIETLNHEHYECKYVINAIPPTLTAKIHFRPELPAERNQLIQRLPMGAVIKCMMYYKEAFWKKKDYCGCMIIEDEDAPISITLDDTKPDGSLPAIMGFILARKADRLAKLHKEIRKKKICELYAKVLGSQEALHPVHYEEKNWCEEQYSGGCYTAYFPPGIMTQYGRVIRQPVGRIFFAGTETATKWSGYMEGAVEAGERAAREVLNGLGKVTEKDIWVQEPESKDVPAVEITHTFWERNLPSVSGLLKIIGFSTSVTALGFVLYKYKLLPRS
# [8] = target: T5, Amine oxidase [flavin-containing] B; assay: Inhibition of recombinant human MAO-B expressed in baculovirus infected BTI insect cells at 10 uM preincubated for 30 mins followed by addition of p-tyramine as substrate measured over 45 mins by Amplex Red MAO assay relative to control; conditions: 0.75 h
# [9] = target: T8, Amine oxidase [flavin-containing] A; assay: Inhibition of recombinant human MAO-A expressed in baculovirus infected BTI insect cells at 10 uM preincubated for 30 mins followed by addition of p-tyramine as substrate measured over 45 mins by Amplex Red MAO assay relative to control; conditions: 0.75 h
# [10] = target: T9, Adenosine receptor A1 (Rattus norvegicus) (UniProt P25099); assay: Displacement of [3H]CCPA from A1 receptor in rat brain cortex membranes at 1.5 uM by liquid scintillation counting method; type: cell membranes
# T9 sequence (whole entry): T6 sequence (P25099 whole entry)
# [11] = Thermodynamic solubility of the compound at pH 1; type: physicochemical; conditions: buffer, read-out: Therm_solubility
# [12] = Thermodynamic solubility of the compound at pH 7.4; type: physicochemical; conditions: buffer, read-out: Therm_solubility
# [13] = target: Adenosine receptor A2a (Rattus norvegicus) (UniProt P30543); assay: Displacement of [3H]MSX from A2A receptor in rat brain striatum membranes at 1 uM measured after 30 mins by liquid scintillation counting method relative to control; type: cell membranes
# Sequence of Adenosine receptor A2a (Rattus norvegicus) (P30543 whole entry): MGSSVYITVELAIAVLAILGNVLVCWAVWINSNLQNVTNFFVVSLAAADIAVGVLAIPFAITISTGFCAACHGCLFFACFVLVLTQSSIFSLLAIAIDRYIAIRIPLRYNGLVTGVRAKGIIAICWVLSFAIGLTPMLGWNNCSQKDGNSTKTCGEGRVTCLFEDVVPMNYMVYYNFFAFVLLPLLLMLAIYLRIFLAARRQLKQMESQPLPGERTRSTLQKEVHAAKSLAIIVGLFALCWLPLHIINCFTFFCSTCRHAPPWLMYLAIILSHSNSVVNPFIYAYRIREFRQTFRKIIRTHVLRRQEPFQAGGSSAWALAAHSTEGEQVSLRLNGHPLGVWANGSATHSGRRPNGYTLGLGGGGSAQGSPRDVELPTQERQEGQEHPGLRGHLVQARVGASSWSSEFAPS
# [14] = Thermodynamic solubility of the compound at pH 4; type: physicochemical; conditions: buffer, read-out: Therm_solubility
# Sequence of Adenosine receptor A2a (P30543 whole entry): as above
SMILES,Ki (Adenosine receptor A2a),Ki (Adenosine receptor A2b),Ki (Adenosine receptor A3),Activity [1],Ki (Adenosine receptor A1 [2]),IC50 [3],Ki (Adenosine receptor A1 [4]),Activity [5],Activity [6],IC50 [7],inhibition at 10 µM [8],inhibition at 10 µM [9],Activity [10],solubility thermodynamic [11],solubility thermodynamic [12],Activity [13],solubility thermodynamic [14]
Cn1c(=O)c2c(nc3n2CCN(CCOc2ccccc2F)C3)n(C)c1=O,> 1000 nM,> 1000 nM,> 10000 nM,41%,–,> 10000 nM,> 1500 nM,12%,–,–,24%,–,5%,> 1500 µg/mL,< 0.5 µg/mL,23%,< 0.5 µg/mL
Cn1c(=O)c2c(nc3n2CCN([C@H]2CCc4ccccc42)C3)n(C)c1=O,2480 nM,> 300 nM,> 10000 nM,33%,–,> 10000 nM,> 1500 nM,–,11%,–,22%,–,29%,–,–,–,–
Cn1c(=O)c2c(nc3n2CCN(CCc2cccs2)C3)n(C)c1=O,1590 nM,> 300 nM,> 10000 nM,24%,–,> 10000 nM,> 1500 nM,–,17%,> 10000 nM,21%,5%,15%,–,–,–,–
Cn1c(=O)c2c(nc3n2CCN(CC(O)c2ccccc2)C3)n(C)c1=O (stereo unspecified),7110 nM,> 1000 nM,> 10000 nM,11%,–,> 10000 nM,> 1500 nM,20%,–,–,3%,–,7%,1100 µg/mL,90 µg/mL,–,70 µg/mL
Cn1c(=O)c2c(nc3n2CCN(CCn2cccc2)C3)n(C)c1=O,> 1000 nM,> 1000 nM,> 10000 nM,37%,–,> 10000 nM,> 1500 nM,8%,–,> 10000 nM,19%,14%,7%,> 1500 µg/mL,1200 µg/mL,8%,1500 µg/mL
Cn1c(=O)c2c(nc3n2CCN(CCOc2cccc(F)c2)C3)n(C)c1=O,> 1000 nM,> 1000 nM,> 10000 nM,42%,–,> 10000 nM,> 1500 nM,11%,–,–,22%,–,8%,> 1500 µg/mL,< 0.5 µg/mL,31%,< 0.5 µg/mL
Cn1c(=O)c2c(nc3n2CCN(CCCc2ccccc2)C3)n(C)c1=O,1840 nM,> 300 nM,> 10000 nM,20%,–,> 10000 nM,> 1500 nM,–,5%,> 10000 nM,14%,9%,12%,–,80 µg/mL,–,–
Cn1c(=O)c2c(nc3n2CCN(C2CCN(Cc4ccccc4)CC2)C3)n(C)c1=O,> 1000 nM,> 1000 nM,> 10000 nM,10%,–,> 10000 nM,> 1500 nM,17%,–,–,2%,–,7%,> 1500 µg/mL,300 µg/mL,5%,> 1500 µg/mL

# The remaining lines, values ahead:
Ki (Adenosine receptor A2a),Ki (Adenosine receptor A2b),Ki (Adenosine receptor A3),Activity [1],Ki (Adenosine receptor A1 [2]),IC50 [3],Ki (Adenosine receptor A1 [4]),Activity [5],Activity [6],IC50 [7],inhibition at 10 µM [8],inhibition at 10 µM [9],Activity [10],solubility thermodynamic [11],solubility thermodynamic [12],Activity [13],solubility thermodynamic [14],SMILES
2910 nM,> 1000 nM,> 10000 nM,25%,553 nM,425 nM,138 nM,26%,–,–,–,–,–,–,–,–,–,Cn1c(=O)c2c(nc3n2CCN(CCc2ccc(Cl)cc2C(F)(F)F)C3)n(C)c1=O
1500 nM,> 300 nM,> 10000 nM,16%,–,> 10000 nM,> 1500 nM,–,8%,> 10000 nM,35%,12%,6%,–,–,–,–,Cn1c(=O)c2c(nc3n2CCN(CCc2cccc(F)c2)C3)n(C)c1=O
5630 nM,> 300 nM,> 10000 nM,40%,–,–,> 1500 nM,–,2%,–,65%,–,24%,–,–,–,–,Cn1c(=O)c2c(nc3n2CCN(CCc2ccccc2F)C3)n(C)c1=O
> 1000 nM,> 1000 nM,> 10000 nM,35%,–,970 nM,> 1500 nM,24%,–,–,–,–,10%,> 1500 µg/mL,< 0.5 µg/mL,27%,< 0.5 µg/mL,Cn1c(=O)c2c(nc3n2CCN(CCc2ccccc2Br)C3)n(C)c1=O
2250 nM,> 1000 nM,30900 nM,–,3520 nM,2450 nM,416 nM,24%,–,> 10000 nM,–,15%,–,–,–,–,–,Cn1c(=O)c2c(nc3n2CCN(CCc2ccc(Cl)cc2Cl)C3)n(C)c1=O
